# Source: BindingDB's records for patent US20250257059 (Nerio Therapeutics, 2025)
# Target: T1, Tyrosine-protein phosphatase non-receptor type 2 (Homo sapiens, UniProt P17706)
# T1 sequence (P17706 whole entry): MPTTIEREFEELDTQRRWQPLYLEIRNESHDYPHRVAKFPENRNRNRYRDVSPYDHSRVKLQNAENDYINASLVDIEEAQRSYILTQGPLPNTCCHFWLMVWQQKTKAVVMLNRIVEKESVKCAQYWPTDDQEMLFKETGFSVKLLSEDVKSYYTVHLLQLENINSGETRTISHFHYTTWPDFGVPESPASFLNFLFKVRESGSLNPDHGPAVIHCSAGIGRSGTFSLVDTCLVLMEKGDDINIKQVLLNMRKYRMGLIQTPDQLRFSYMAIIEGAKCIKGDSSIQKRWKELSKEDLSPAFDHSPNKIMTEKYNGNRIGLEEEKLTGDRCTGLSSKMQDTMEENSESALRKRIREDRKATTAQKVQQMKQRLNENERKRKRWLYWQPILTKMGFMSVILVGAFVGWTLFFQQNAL
# Assay: In vitro enzymatic assay
# Protocol: PTPN2 was produced in E. coli as a GST-TEV fusion and the GST was removed by TEV digestion, followed by additional purification to yield full-length PTPN2 (SEQ ID 1). PTPN2 enzyme was diluted in assay buffer (50 mM HEPES pH7.5, 0.2 mM EDTA, 1 mM DTT, 0.02% Brij-35, 0.02% BSA) to a final concentration of 0.5 nM and added to black 384-well non-binding plates (Greiner, 781900). Compounds were subsequently added using a Tecan D300e dispenser. Following a 10 min incubation at room temperature, DiFMUP substrate (ThermoFisher, D22065) was added to a final concentration of 100 μM. Plates were transferred to a SpectraMax plate reader (Molecular Devices) and fluorescence intensity was measured (ex 358, em 455) after a 30 min incubation at room temperature. […] A four-parameter curve fit was used to determine IC50 values from % inhibition data.
row,SMILES,IC50
1,"CC(C)CCCN1CCCCC1Cc1ccc(O)c(N2CC(=O)NS2(=O)=O)c1F (centres undefined) [US20250257059, Example 79]",7 nM
2,"O=C1CN(c2c(O)cc(CCN3Cc4ccccc4C3)cc2F)S(=O)(=O)N1 [US20250257059, Example 128]",2 nM
3,"O=C1CN(c2c(O)cc(CC3CCCCNC3)cc2F)S(=O)(=O)N1 (centres undefined) [US20250257059, Example 55]",16 nM
4,"CC(C)[C@H]1CCN(CCc2cc(O)c(N3CC(=O)NS3(=O)=O)c(F)c2)C1 [US20250257059, Example 135]",2 nM
5,"CC1(C)CN(CCc2cc(O)c(N3CC(=O)NS3(=O)=O)c(F)c2)C1 [US20250257059, Example 127]",2 nM
6,"O=C1CN(c2c(O)cc(CCN3CCOCC3)cc2F)S(=O)(=O)N1 [US20250257059, Example 89]",7 nM
7,"COC[C@@H]1CCN(CCc2cc(O)c(N3CC(=O)NS3(=O)=O)c(F)c2)C1 [US20250257059, Example 117]",1 nM
8,"O=C1CN(c2c(O)cc(CCN3CC(C(F)(F)F)C3)cc2F)S(=O)(=O)N1 [US20250257059, Example 137]",5 nM
9,"O=C1CN(c2c(O)ccc(CC3CCCCN3CCC3CCCC3)c2F)S(=O)(=O)N1 (centres undefined) [US20250257059, Example 80]",5 nM
10,"CC(C)[C@@H]1CCN(CCc2cc(O)c(N3CC(=O)NS3(=O)=O)c(F)c2)C1 [US20250257059, Example 134]",1 nM
11,"CC(C)(C)C1CCN(CCc2cc(O)c(N3CC(=O)NS3(=O)=O)c(F)c2)C1 (centres undefined) [US20250257059, Example 111]",2 nM
12,"O=C1CN(c2c(O)cc(CCN3CC(F)C3)cc2F)S(=O)(=O)N1 [US20250257059, Example 136]",3 nM
13,"O=C1CN(c2c(O)cc(CCN3CC[C@@H](C(F)(F)F)C3)cc2F)S(=O)(=O)N1 [US20250257059, Example 122]",3 nM
14,"O=C1CN(c2c(O)cc(CCN3CCC4(CCOCC4)C3)cc2F)S(=O)(=O)N1 [US20250257059, Example 113]",2 nM
15,"COC1CCN(CCc2cc(O)c(N3CC(=O)NS3(=O)=O)c(F)c2)CC1 [US20250257059, Example 104]",3 nM
16,"O=C1CN(c2c(O)cc(CCN3CCC4(CCCC4)C3)cc2F)S(=O)(=O)N1 [US20250257059, Example 112]",2 nM
17,"O=C1CN(c2c(O)cc(CCN3CCCC(F)C3)cc2F)S(=O)(=O)N1 (centres undefined) [US20250257059, Example 97]",3 nM
18,"O=C1CN(c2c(O)cc(CC3CCN(Cc4ccco4)C3)cc2F)S(=O)(=O)N1 (centres undefined) [US20250257059, Example 7]",7 nM
19,"CC1CN(CCc2cc(O)c(N3CC(=O)NS3(=O)=O)c(F)c2)C1 [US20250257059, Example 140]",2 nM
